{"source": "patent US10975123B2", "about": "“Mutant Akt-specific capture agents, compositions, and methods of using and making” (California Institute of Technology, priority 2014, dated 2021)", "key": {"[1]": {"biological_target": "T1, E17K PH Domain binding to PIP3 (Homo sapiens, UniProt P31749, E17K)", "T1 construct": "2 μg of either wildtype or mutant PH Domain-GFP protein (234 nM); made in house; host or cells: HEK-293-6E (used as cell lysate, not purified)", "T1 sequence (P31749 5-108 E17K limits assumed)": "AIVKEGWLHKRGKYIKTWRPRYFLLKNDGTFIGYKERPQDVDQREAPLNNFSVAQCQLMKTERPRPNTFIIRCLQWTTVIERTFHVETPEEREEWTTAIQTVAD", "assay": "PIP3 agarose inhibition assay, E17K", "format": "biochemical", "details": "ligand 2.38 μM (10x protein), protein 234 nM, western blot, in words", "text": "The yleaf ligand, the biligand, and the triligand were all tested for their ability to block the E17K PHD binding with PIP3. For this test, PIP3-coated resin (Echelon Biosciences) was used to mimic the PHD interaction with the cell membrane, and could be used to bind the protein as in an immunoprecipitation assay^22. The presence of an effective blocking compound would reduce the ability of the resin to capture the protein, and would thus appear as a diminished signal in the corresponding western blot assay. A control lane containing no capture agent was used to show baseline binding of the protein to the PIP3 resin. […] In an expanded study, we compared the amount of E17K and WT PH domain binding relative to the amount of added triligand (FIG. 5e).\nPIP3 Agarose beads (Echelon) were used to detect for the inhibition of PH Domain binding to its substrate, PIP3, upon incubation with the anchor candidate peptide ligands. To test the inhibition of each of the ligands, anchor biligand and triligand, 20 μL of resin slurry was added to each of four tubes and washed three times with 1×TBS. Protein, 2 μg (234 nM) of E17K mutant, was preincubated for one hour at room temperature with either DMSO (no protein blank), anchor, biligand or triligand at 2.38 μM (10× in relation to protein) in 200 μL of 1×TBS. For the control, mutant PH Domain was incubated with 1×TBS and 1 μL […] to mimic the ligand conditions. These protein samples were then added to PIP3 agarose in a Spin-X tube and incubated at room temperature for two hours. The resin was washed three times with 1×TBS with 0.25% IGEPAL CA-630, spun out to dry completely, then denatured with 50 μL 3×SDS gel loading buffer for 10 min at 95° C. The gel loading buffer was spun out of the resin and detected via western blot as per the Streptavidin-Agarose Pulldowns. Inhibition was indicated by a decrease in the amount of PH Domain that was pulled down by the resin.\nExpanded inhibition blots with either WT of E17K mutant protein were performed in a similar fashion. Twelve tubes of 20 μL of PIP3 agarose were washed three times with 1×TBS. 2 μg of either wildtype or mutant PH Domain-GFP protein (234 nM) in 200 uL 1×TBS were preincubated for 30 minutes with differing concentrations of triligand: 0.1 eq (23.4 nM), 1 eq (234 nM), 10 eq (2.34 μM), 100 eq (23.4 μM), and 1000 eq (234 μM). The protein and triligand solutions were then incubated with the PIP3 resin for 2 hours at room temperature. The resins were washed, eluted, and blotted as per all PH Domain western blots."}, "full length Akt1E17K": {"biological_target": "full length Akt1E17K (Homo sapiens, UniProt P31749, E17K)", "sequence (P31749 whole entry E17K)": "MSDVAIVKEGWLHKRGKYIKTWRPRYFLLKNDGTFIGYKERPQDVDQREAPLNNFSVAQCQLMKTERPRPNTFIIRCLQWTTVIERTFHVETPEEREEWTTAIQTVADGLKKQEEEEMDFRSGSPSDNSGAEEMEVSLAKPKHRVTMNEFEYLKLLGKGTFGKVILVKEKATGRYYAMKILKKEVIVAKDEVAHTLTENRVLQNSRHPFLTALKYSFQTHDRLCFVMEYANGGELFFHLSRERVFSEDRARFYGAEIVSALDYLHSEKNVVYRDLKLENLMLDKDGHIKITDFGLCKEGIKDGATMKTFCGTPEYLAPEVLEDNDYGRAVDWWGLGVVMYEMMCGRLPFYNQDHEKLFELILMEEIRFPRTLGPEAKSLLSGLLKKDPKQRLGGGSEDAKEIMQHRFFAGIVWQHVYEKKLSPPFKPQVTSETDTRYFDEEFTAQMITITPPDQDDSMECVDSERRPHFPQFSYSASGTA", "assay": "Fluorescence polarization binding to full-length E17K Akt1", "details": "yleaf peptide 4, fluorescence polarization in solution, triplicate", "procedure": "(§1) FIG. 2: Anchor ligand structure and characterization. (FIG. 2A) The peptide anchor ligand, yleaf (SEQ ID NO: 43), which was discovered using the epitope-targeting technique. The different sets of R groups indicate the modifications that were made to perform the various experiments described. (FIG. 2B) Point ELISA for specificity obtained by immobilizing biotinylated yleaf (SEQ ID NO: 43) anchor ligand 2 onto a Neutravidin plate, then incubating with a 6 His-tagged epitope (“6 His” disclosed as SEQ ID NO: 4) 3. […] (FIG. 2C) Binding curves of yleaf (SEQ ID NO: 43) anchor ligand 4 to the full-length WT or E17K mutant Akt1 proteins obtained in solution by fluorescence polarization. A saturation point for the WT ligand was not reached due to the prohibitively high protein concentration required. (FIG. 2D) Full binding curves of yleaf (SEQ ID NO: 43) anchor ligand 4 to the WT or E17K mutant epitopes. […] All assays were performed in triplicate and averaged. Error bars indicate standard deviation.\nFIG. 5: The PCC agent triligand development strategy, structure, and inhibition data. (FIG. 5A) The yleaf (SEQ ID NO: 43) anchor ligand with a C-terminal alkyne 2 was screened against an azide-terminated library in the presence of the full-length PH Domain to identify a biligand. The biligand 7 was then appended with an N-terminal azide and screened against an alkyne library to identify a triligand. […]"}, "[2]": {"biological_target": "T2, E17K 33-mer epitope (PH Domain fragment of Akt1) (Homo sapiens, UniProt P31749, E17K/H13K)", "T2 construct": "made in house; host or cells: chemical synthesis (Fmoc SPPS)", "T2 sequence (P31749 1-33 H13K/E17K limits assumed)": "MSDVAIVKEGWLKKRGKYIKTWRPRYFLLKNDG", "assay": "Fluorescence polarization binding to E17K mutant epitope", "details": "yleaf peptide 4, fluorescence polarization in solution, triplicate", "procedure": "as §1\nThe selectivity of the yleaf (SEQ ID NO: 43) peptide for the E17K 33-mer epitope was also tested in an ELISA assay format. For these assays, the WT or E17K 33-mer peptide fragments were captured using the PEG-biotin-modified yleaf (SEQ ID NO: 43) ligand immobilized on a neutravidin-coated plate."}}, "note": "Entries after “also recorded” stand apart in the source; their conditions may differ. Where a SMILES comes first, the peptide text is derived from it. [ ]: non-standard residue; d: D form.", "data": [{"smiles": "CC(C)C[C@@H](NC(=O)[C@H](N)Cc1ccc(O)cc1)C(=O)N[C@H](CCC(=O)O)C(=O)N[C@H](C)C(=O)N[C@H](Cc1ccccc1)C(N)=O", "note": "[yleaf] (H-[dY][dL][dE][dA][dF]-NH2; N-terminus assumed)", "values": [{"measurement": "inhibition of E17K PH Domain binding to PIP3-coated resin", "setting": "[1]", "result": "did not exhibit evidence of inhibition; also recorded: no change in E17K binding ability"}, {"measurement": "Kd", "setting": "full length Akt1E17K", "result": "54 ± 7", "unit": "nM"}, {"measurement": "Kd", "setting": "[2]", "result": "328 ± 96", "unit": "nM"}]}]}
